Experimental findings from US20250114338A1, “TETRAHYDRO-PYRIDO[3,4-b]INDOLE ESTROGEN RECEPTOR MODULATORS AND USES THEREOF” (Genentech, Inc., priority 2014, published 2025) are described below.

A word on the EC50: it is the concentration giving half of the maximal effect.

This experiment concerns ER-alpha MCF7. Kind of experiment: ER-alpha MCF7 HCS EC50; stated as measured by in vitro cell proliferation assays of Examples 902 and 903. The class given is cell-based. The following applies: Homo sapiens, MCF7, MCF7 cells; Table 2. The method in brief:
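MCF7 cells seeded 1000-2000 cells/well for 16 h, then treated with nine-point 1:2 DMSO dilution series in quadruplicate at 37 °C, 5% CO2 for 4 days. Viable cells quantified by CellTiter-Glo ATP luminescence; EC50 calculated. Controls: fulvestrant at final 100 nM, DMSO 0.2% v/v.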
`C[C@@H]1Cc2c([nH]c3ccccc23)[C@@H](c2c(F)cc(OC3CN(CCF)C3)cc2F)N1CC(C)(C)F` [Example 166, (1R,3R)-1-[2,6-difluoro-4-[1-(2-fluoroethyl)azetidin-3-yl]oxy-phenyl]-2-(2-fluoro-2-methyl-propyl)-3-methyl-1,3,4,9-tetrahydropyrido[3,4-b]indole]: the concentration giving a half-maximal response (EC50) worked out at 0.175 nM.
Consider `C[C@@H]1Cc2c([nH]c3ccccc23)[C@@H](c2c(F)cc(OC3CN(CCCF)C3)cc2F)N1C(=O)C1(F)CC1` [Example 238, [(1R,3R)-1-[2,6-difluoro-4-[1-(3-fluoropropyl)azetidin-3-yl]oxy-phenyl]-3-methyl-1,3,4,9-tetrahydropyrido[3,4-b]indol-2-yl]-(1-fluorocyclopropyl)methanone], for which the EC50 is 0.244 nM.
In the case of `C[C@@H]1Cc2c([nH]c3ccc(F)cc23)[C@@H](c2c(F)cc(OC3CN(CCCF)C3)cc2F)N1C[C@@](C)(F)CO` [Example 370, 3-((1R,3R)-1-(2,6-difluoro-4-((1-(3-fluoropropyl)azetidin-3-yl)oxy)phenyl)-6-fluoro-3-methyl-1,3,4,9-tetrahydro-2H-pyrido[3,4-b]indol-2-yl)-2-fluoro-2-methylpropan-1-ol] it was 0.203 nM.
In the case of `C=CCN1CC(Oc2cc(F)c([C@@H]3c4[nH]c5ccccc5c4C[C@@H](C)N3CC(C)(C)F)c(F)c2)C1` [Example 188, (1R,3R)-1-[4-(1-allylazetidin-3-yl)oxy-2,6-difluoro-phenyl]-2-(2-fluoro-2-methyl-propyl)-3-methyl-1,3,4,9-tetrahydropyrido[3,4-b]indole] it was 0.128 nM; in that of `C[C@@H]1Cc2c([nH]c3ccccc23)[C@@H](c2cnn(CC3CN(CCCF)C3)c2)N1CC(C)(C)F` [Example 429, (1R,3R)-2-(2-fluoro-2-methylpropyl)-1-(1-((1-(3-fluoropropyl)azetidin-3-yl)methyl)-1H-pyrazol-4-yl)-3-methyl-2,3,4,9-tetrahydro-1H-pyrido[3,4-b]indole], 0.99 nM.
In the case of `C[C@@H]1Cc2c([nH]c3ccccc23)[C@@H](c2c(F)cc(OCCN3CC(CF)C3)cc2F)N1C[C@@](C)(O)CO` [Example 278, (2R)-3-[(1R,3R)-1-[2,6-difluoro-4-[2-[3-(fluoromethyl)azetidin-1-yl]ethoxy]phenyl]-3-methyl-1,3,4,9-tetrahydropyrido[3,4-b]indol-2-yl]-2-methyl-propane-1,2-diol] it was 0.31 nM.
For the molecule `C[C@@H]1Cc2c([nH]c3ccccc23)[C@@H](c2c(F)cc(OCCN3CC(CF)C3)cc2F)N1C(=O)C1CCCCC1` [Example 137, cyclohexyl((1R,3R)-1-(2,6-difluoro-4-(2-(3-(fluoromethyl)azetidin-1-yl)ethoxy)phenyl)-3-methyl-3,4-dihydro-1H-pyrido[3,4-b]indol-2(9H)-yl)methanone], the EC50 was 28 nM.
In the case of `C[C@@H]1Cc2c([nH]c3ccccc23)[C@@H](c2c(F)cc(OC3CN(CCCF)C3)cc2F)N1CC(C)(C)CF` [Example 272, (1R,3R)-1-[2,6-difluoro-4-[1-(3-fluoropropyl)azetidin-3-yl]oxy-phenyl]-2-(3-fluoro-2,2-dimethyl-propyl)-3-methyl-1,3,4,9-tetrahydropyrido[3,4-b]indole] it was 0.685 nM.
Then `C[C@@H]1Cc2c([nH]c3ccccc23)[C@@H](c2ccc(OCCN3CC(CF)C3)cc2)N1S(=O)(=O)N(C)C` [Example 329, (1R,3R)-1-[4-[2-[3-(fluoromethyl)azetidin-1-yl]ethoxy]phenyl]-N,N,3-trimethyl-1,3,4,9-tetrahydropyrido[3,4-b]indole-2-sulfonamide], with 1 nM; and `C[C@@H]1Cc2c([nH]c3ccccc23)[C@@H](c2c(F)cc(OCCN3CC(CF)C3)cc2F)N1CC1(C)CCC1` [Example 173, (1R,3R)-1-[2,6-difluoro-4-[2-[3-(fluoromethyl)azetidin-1-yl]ethoxy]phenyl]-3-methyl-2-[(1-methylcyclobutyl)methyl]-1,3,4,9-tetrahydropyrido[3,4-b]indole], with 1 nM.
In the case of `C[C@@H]1Cc2c([nH]c3ccccc23)[C@@H](c2ccc(NCCN3CC(CF)C3)cc2F)N1CC(C)(C)F` [Example 322, 3-fluoro-N-[2-[3-(fluoromethyl)azetidin-1-yl]ethyl]-4-[(1R,3R)-2-(2-fluoro-2-methyl-propyl)-3-methyl-1,3,4,9-tetrahydropyrido[3,4-b]indol-1-yl]aniline] it was 0.0253 nM; in that of `C[C@H]1Cc2c([nH]c3ccc(F)cc23)[C@H](c2c(F)cc(OCCN3CC(CF)C3)cc2F)N1CC(F)(F)F` [Example 355, (1S,3S)-1-(2,6-difluoro-4-(2-(3-(fluoromethyl)azetidin-1-yl)ethoxy)phenyl)-6-fluoro-3-methyl-2-(2,2,2-trifluoroethyl)-2,3,4,9-tetrahydro-1H-pyrido[3,4-b]indole], 29.2 nM.
Take `C[C@H]1Cc2c([nH]c3ccc(F)cc23)[C@H](c2c(F)cc(OCCN3CC(CF)C3)cc2F)N1CC(F)(F)CO` [Example 360, 3-((1S,3S)-1-(2,6-difluoro-4-(2-(3-(fluoromethyl)azetidin-1-yl)ethoxy)phenyl)-6-fluoro-3-methyl-1,3,4,9-tetrahydro-2H-pyrido[3,4-b]indol-2-yl)-2,2-difluoropropan-1-ol]: the concentration for a half-maximal effect (EC50) is 9 nM.
In the case of `C[C@@H]1Cc2c([nH]c3ccccc23)[C@@H](c2c(F)cc(OC3CN(CCC4COC4)C3)cc2F)N1CC(C)(C)F` [Example 208, (1R,3R)-1-[2,6-difluoro-4-[1-[2-(oxetan-3-yl)ethyl]azetidin-3-yl]oxy-phenyl]-2-(2-fluoro-2-methyl-propyl)-3-methyl-1,3,4,9-tetrahydropyrido[3,4-b]indole] it was 0.066 nM.
Then `C[C@@H]1Cc2c([nH]c3ccccc23)[C@@H](c2c(F)cc(OC3CN(C4CC4)C3)cc2F)N1CC(C)(C)F` [Example 195, (1R,3R)-1-[4-(1-cyclopropylazetidin-3-yl)oxy-2,6-difluoro-phenyl]-2-(2-fluoro-2-methyl-propyl)-3-methyl-1,3,4,9-tetrahydropyrido[3,4-b]indole], with 0.165 nM; and `C[C@@H]1Cc2c([nH]c3ccccc23)[C@@H](c2c(F)cc(OC3CN(C4CCC4)C3)cc2F)N1CC(C)(C)F` [Example 193, (1R,3R)-1-[4-(1-cyclobutylazetidin-3-yl)oxy-2,6-difluoro-phenyl]-2-(2-fluoro-2-methyl-propyl)-3-methyl-1,3,4,9-tetrahydropyrido[3,4-b]indole], with 0.484 nM.
Take `C[C@@H]1Cc2c([nH]c3ccccc23)[C@H](c2ccc(OCCN3CC(CF)C3)c(F)c2)N1CC(C)(C)F` [Example 280, (1S,3R)-2-(2-fluoro-2-methylpropyl)-1-(3-fluoro-4-(2-(3-(fluoromethyl)azetidin-1-yl)ethoxy)phenyl)-3-methyl-2,3,4,9-tetrahydro-1H-pyrido[3,4-b]indole]: the EC50 was 6 nM.
Then `C[C@@H]1Cc2c([nH]c3c(F)cccc23)[C@@H](c2c(F)cc(NC3CN(CCCF)C3)cc2F)N1CC(F)(F)F` [Example 410, N-(3,5-difluoro-4-((1R,3R)-8-fluoro-3-methyl-2-(2,2,2-trifluoroethyl)-2,3,4,9-tetrahydro-1H-pyrido[3,4-b]indol-1-yl)phenyl)-1-(3-fluoropropyl)azetidin-3-amine], with 0.12 nM.
